Data from patent US8637684B2, “Tautomycetin and tautomycetin analog biosynthesis” (Wisconsin Alumni Research Foundation, priority 2010, dated 2014).

Assays:
SHP1 = SHP1 (Homo sapiens, UniProt P29350); test: PTP activity assay with pNPP as substrate: SHP1; type: biochemical; details: pNPP as substrate at Km, pH 7.0, 25° C., I = 0.15 M
Protocol: (§1) The PTP activity was assayed using pNPP as a substrate at 25° C. in 50 mM 3,3-dimethylglutarate buffer, pH 7.0, containing 1 mM EDTA with an ionic strength of 0.15 M adjusted by NaCl. TTM, TTN and the engineered analogs were analyzed for inhibition of a panel of PTPs at 10 μM compound concentration. For each enzyme screened, test compounds were diluted to 20 μM in 100 μL and combined with 50 μL pNPP at a concentration of 4×Km. The reaction was initiated by the addition of 50 μL of 4× concentrated enzyme and pNPP was allowed to convert to the product p-nitrophenol. The reaction was quenched by the addition of 50 μL of 5N NaOH. Nonenzymatic hydrolysis of pNPP was corrected by measuring the control without the addition of enzyme. Production of p-nitrophenol was monitored by a Spectra MAX385 microplate spectrophotometer (Molecular Devices) at 405 nm using a molar extinction coefficient of 18,000 M^−1 cm^−1. IC50 values were calculated by fitting the absorbance at 405 nm versus inhibitor concentration to the following equation: AI/A0=IC50/(IC50+[I]) where AI is the absorbance at 405 nm of the sample in the presence of inhibitor; Ao is the absorbance at 405 nm in the absence of inhibitor; and [I] is the concentration of the inhibitor.

CD45 = molecular target: T1, CD45 (Homo sapiens, UniProt P08575); test: PTP activity assay with pNPP as substrate: CD45; type: biochemical; details: pNPP as substrate at Km, pH 7.0, 25° C., I = 0.15 M
T1 sequence (P08575 26-1306): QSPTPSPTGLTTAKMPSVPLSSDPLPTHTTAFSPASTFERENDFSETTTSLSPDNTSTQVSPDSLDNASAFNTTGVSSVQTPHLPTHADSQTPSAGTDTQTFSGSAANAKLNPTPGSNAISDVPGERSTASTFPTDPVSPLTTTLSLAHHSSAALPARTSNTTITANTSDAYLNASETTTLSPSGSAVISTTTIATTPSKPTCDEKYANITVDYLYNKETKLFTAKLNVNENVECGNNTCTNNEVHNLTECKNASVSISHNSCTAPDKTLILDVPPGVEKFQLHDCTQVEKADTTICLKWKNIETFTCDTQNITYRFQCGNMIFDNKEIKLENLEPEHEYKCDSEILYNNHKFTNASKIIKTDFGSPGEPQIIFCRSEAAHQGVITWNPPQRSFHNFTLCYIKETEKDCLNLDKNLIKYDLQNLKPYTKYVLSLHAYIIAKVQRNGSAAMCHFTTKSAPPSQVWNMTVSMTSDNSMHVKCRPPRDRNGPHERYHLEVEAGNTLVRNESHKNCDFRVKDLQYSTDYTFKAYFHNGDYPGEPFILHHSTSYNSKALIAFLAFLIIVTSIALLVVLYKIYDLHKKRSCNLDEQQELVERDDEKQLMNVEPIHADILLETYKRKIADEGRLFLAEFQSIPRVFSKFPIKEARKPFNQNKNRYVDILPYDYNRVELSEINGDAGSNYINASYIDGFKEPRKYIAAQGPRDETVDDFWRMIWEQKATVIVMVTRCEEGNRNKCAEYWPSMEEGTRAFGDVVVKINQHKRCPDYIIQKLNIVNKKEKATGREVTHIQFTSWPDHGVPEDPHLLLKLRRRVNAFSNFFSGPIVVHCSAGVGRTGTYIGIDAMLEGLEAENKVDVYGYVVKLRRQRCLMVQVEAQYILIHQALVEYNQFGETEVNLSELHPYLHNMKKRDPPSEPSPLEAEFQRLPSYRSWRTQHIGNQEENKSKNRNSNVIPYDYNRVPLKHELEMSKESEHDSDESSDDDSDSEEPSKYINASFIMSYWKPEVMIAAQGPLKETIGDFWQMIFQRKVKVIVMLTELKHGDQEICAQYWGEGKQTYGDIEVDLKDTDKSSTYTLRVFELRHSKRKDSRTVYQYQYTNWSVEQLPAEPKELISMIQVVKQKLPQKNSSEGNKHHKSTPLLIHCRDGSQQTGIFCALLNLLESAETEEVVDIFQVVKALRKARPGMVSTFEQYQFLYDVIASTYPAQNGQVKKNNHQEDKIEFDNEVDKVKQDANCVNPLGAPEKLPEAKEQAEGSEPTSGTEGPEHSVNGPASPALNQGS
Protocol: as §1

PP2A = details: literature values; cited from earlier work
VHR = VHR (Homo sapiens, UniProt P51452); test: PTP activity assay with pNPP as substrate: VHR; type: biochemical; details: pNPP as substrate at Km, pH 7.0, 25° C., I = 0.15 M
Sequence of VHR (P51452 whole entry, species assumed): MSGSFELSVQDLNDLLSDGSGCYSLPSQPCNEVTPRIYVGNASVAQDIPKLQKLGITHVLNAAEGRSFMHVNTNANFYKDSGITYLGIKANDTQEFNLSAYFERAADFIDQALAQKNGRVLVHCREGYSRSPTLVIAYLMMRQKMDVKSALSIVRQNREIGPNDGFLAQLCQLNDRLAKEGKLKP
Protocol: as §1

[1] = tested on: GM-CSF induced ERK1/2 activation in macrophage progenitors; test: GM-CSF induced ERK1/2 activation in macrophage progenitors, immunoblot; type: cell-based; details: 2 μM TTN for 2 hours, GM-CSF 50 ng/mL
Protocol: Bone marrow low density mononuclear cells (LDMNCs) were transduced with MIEG3 (empty vector), MIEG3-WT SHP2, or MIEG3-SHP2/E76K, sorted based on enhanced green fluorescent protein (EGFP) expression, and cultured for 5 days in M-CSF 100 ng/mL to generate macrophage progenitors, as previously described (Chan et al., 2005). Cells were serum- and growth factor-deprived for 16 hours, treated with 2 μM TTN for 2 hours, and stimulated with GM-CSF 50 ng/mL followed by preparation of protein extracts. Extracts were evaluated by immunoblot using α-phospho-ERK1/2 for activated ERK levels and α-ERK1/2 for total ERK levels (Cell Signaling Technology, Beverly, Mass.).
For biochemical studies, macrophage progenitor cells expressing empty vector (MIEG3), wild-type SHP2, or SHP2/E76K were serum- and growth factor-deprived for […]. Cells were pre-treated with DMSO or 2 μM TTN for 2 hours, and then cultures either remained unstimulated or were stimulated with GM-CSF at 50 ng/mL for 60 minutes. […] They next examined the effect of TTN on GM-CSF-stimulated hyperproliferation of SHP2/E76K-expressing hematopoietic progenitors. […] To provide further evidence that SHP2 is a molecular target of TTN, the inventors determined the X-ray crystal structure of SHP2 in complex with TTN D-1, as crystallization attempts for the SHP2-TTN complex were unsuccessful. […]

Sequence of SHP1 (P29350 whole entry): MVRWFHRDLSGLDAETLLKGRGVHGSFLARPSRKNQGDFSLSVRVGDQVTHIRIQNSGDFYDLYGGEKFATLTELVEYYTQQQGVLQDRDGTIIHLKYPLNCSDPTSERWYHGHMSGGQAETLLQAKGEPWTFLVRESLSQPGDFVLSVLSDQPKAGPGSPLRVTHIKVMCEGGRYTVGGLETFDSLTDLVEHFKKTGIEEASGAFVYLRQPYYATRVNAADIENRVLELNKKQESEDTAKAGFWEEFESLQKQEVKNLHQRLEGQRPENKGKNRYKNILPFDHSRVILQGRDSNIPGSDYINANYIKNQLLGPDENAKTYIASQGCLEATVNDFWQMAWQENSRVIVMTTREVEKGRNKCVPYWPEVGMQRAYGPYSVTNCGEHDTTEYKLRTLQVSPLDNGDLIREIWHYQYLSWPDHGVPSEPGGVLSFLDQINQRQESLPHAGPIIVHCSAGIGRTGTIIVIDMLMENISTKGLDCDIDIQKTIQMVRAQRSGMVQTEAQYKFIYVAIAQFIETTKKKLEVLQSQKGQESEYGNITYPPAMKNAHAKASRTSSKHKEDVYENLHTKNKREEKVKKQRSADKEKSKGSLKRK

tautomycetin [TTN]
IC50 (SHP1): 14.6 µM | IC50 (CD45): > 50 µM | IC50 (PP2A): 0.062 µM | IC50 (VHR): > 50 µM | effect on ERK1/2 hyperactivation in SHP2/E76K-expressing cells [1]: effectively inhibited | effect on GM-CSF induced ERK1/2 activation in macrophage progenitors [1]: abrogated
